# pEC50: −log10 of the molar value.
# Columns and labels:
# [1] = molecular target: T1, Human GPR120 short form (Homo sapiens, UniProt Q5NUL3); assay: Human GPR120 calcium flux assay, Procedure Calcium B (4200 cells/well); type: cell-based
# T1 construct: expressed in transfected cells
# T1 sequence (Q5NUL3 1-361): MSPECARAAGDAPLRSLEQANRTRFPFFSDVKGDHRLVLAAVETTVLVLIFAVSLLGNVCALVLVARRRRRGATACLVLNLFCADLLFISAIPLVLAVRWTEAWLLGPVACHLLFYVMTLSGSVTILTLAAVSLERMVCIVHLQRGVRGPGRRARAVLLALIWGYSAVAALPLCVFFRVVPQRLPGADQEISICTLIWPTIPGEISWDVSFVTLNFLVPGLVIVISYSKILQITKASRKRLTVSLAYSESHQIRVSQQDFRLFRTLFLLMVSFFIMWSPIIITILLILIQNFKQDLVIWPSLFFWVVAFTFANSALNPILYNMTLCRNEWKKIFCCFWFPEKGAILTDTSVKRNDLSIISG
# How it was run: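 Agonist EC50 came from a four-parameter fit of RFU (Fmax−Fmin) read over 300 s on FLIPR. Cells were HEK293 stably transfected with human GPR120 (NM_001195755.1) at 4200 per well, serum-starved 1 h and loaded with Fluo-4 NW dye with probenecid before ligand addition.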
# [2] = molecular target: T2, human GPR40 (Homo sapiens, UniProt O14842); assay: GPR40 calcium flux assay, human GPR40; type: cell-based; conditions: HEK293 cells stably expressing GPR40; table does not say human or rat
# T2 construct: expressed in transfected cells
# How it was run: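 Cells preincubated 1 h at 37° C. in HBSS, 20 mM HEPES, 0.1% BSA, then Fluo 8 calcium dye 30 min at 37° C. and 15 min at room temperature.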
# T2 sequence (O14842 whole entry): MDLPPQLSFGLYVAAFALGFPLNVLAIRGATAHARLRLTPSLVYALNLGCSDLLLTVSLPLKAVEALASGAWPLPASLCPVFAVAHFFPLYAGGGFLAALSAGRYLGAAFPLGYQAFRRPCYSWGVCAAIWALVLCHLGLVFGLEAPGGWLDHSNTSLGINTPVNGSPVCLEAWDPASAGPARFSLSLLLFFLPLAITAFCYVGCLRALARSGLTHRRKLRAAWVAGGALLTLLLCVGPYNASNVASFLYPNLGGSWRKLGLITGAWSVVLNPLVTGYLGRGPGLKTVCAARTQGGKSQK
SMILES,pEC50 [1],pEC50 [2]
"O=C(O)CCc1ccc(OCC2=C(c3ccc(C(F)(F)F)cc3)CCC2)cc1Cl [Compound 272, 3-[2-chloro-4-[[2-[4-(trifluoromethyl)phenyl]cyclopenten-1-yl]methoxy]phenyl]Propanoic Acid]",5.65,6.58
"O=C(O)CCc1ccc(OCC2=C(c3ccc(Cl)c(F)c3)CCC2)cc1Cl [Compound 274, 3-[2-chloro-4-[[2-(4-chloro-3-fluoro-phenyl)cyclopenten-1-yl]methoxy]phenyl]Propanoic Acid]",6.29,6.67
"Cc1cc(OCC2=C(c3ccccc3)CCC2)c(F)cc1CCC(=O)O [Compound 277, 3-[5-fluoro-2-methyl-4-[(2-phenylcyclopenten-1-yl)methoxy]phenyl]Propanoic Acid]",6.10,5.57
"COc1ccc(C2=C(COc3cc(C)c(CCC(=O)O)cc3F)CCC2)c(C)c1 [Compound 278, 3-[5-fluoro-4-[[2-(4-methoxy-2-methyl-phenyl)cyclopenten-1-yl]methoxy]-2-methyl-phenyl]Propanoic Acid]",< 5.30,6.52
"COc1ccc(C2=C(COc3cc(C)c(CCC(=O)O)cc3F)CCC2)cc1 [Compound 279, 3-[5-fluoro-4-[[2-(4-methoxyphenyl)cyclopenten-1-yl]methoxy]-2-methyl-phenyl]Propanoic Acid]",6.31,5.45
"Cc1cc(OCC2=C(c3ccc(Cl)cc3C)CCC2)c(F)cc1CCC(=O)O [Compound 286, 3-[4-[[2-(4-chloro-2-methyl-phenyl)cyclopenten-1-yl]methoxy]-5-fluoro-2-methyl-phenyl]Propanoic Acid]",5.54,6.61
"COc1ccc(C2=C(COc3ccc(CCC(=O)O)c(C(F)(F)F)c3)CCC2)c(C)c1 [Compound 287, 3-[4-[[2-(4-methoxy-2-methyl-phenyl)cyclopenten-1-yl]methoxy]-2-(trifluoromethyl)phenyl]Propanoic Acid]",< 5.30,6.82
"COc1ccc(C2=C(COc3ccc(CCC(=O)O)c(Cl)c3)CCC2)cc1 [Compound 288, 3-[2-chloro-4-[[2-(4-methoxyphenyl)cyclopenten-1-yl]methoxy]phenyl]Propanoic Acid]",6.07,5.97
"Cc1ccc(C2=C(COc3ccc(CCC(=O)O)c(C(F)(F)F)c3)CCC2)c(-c2ccccc2)c1 [Compound 291, 3-[4-[[2-(4-methyl-2-phenyl-phenyl)cyclopenten-1-yl]methoxy]-2-(trifluoromethyl)phenyl]Propanoic Acid]",< 5.30,5.85
"Cc1ccc(C2=C(COc3ccc(CCC(=O)O)c(C(F)(F)F)c3)CCC2)cc1-c1ccccc1 [Compound 292, 3-[4-[[2-(4-methyl-3-phenyl-phenyl)cyclopenten-1-yl]methoxy]-2-(trifluoromethyl)phenyl]Propanoic Acid]",< 5.30,5.77
"CCc1ccc(C2=C(COc3ccc(CCC(=O)O)c(Cl)c3)CCC2)cc1 [Compound 293, 3-[2-chloro-4-[[2-(4-ethylphenyl)cyclopenten-1-yl]methoxy]phenyl]Propanoic Acid]",5.66,5.37
"CCc1ccc(C2=C(COc3ccc(CCC(=O)O)c(C(F)(F)F)c3)CCC2)cc1 [Compound 294, 3-[4-[[2-(4-ethylphenyl)cyclopenten-1-yl]methoxy]-2-(trifluoromethyl)phenyl]Propanoic Acid]",< 5.30,5.45
"O=C(O)CCc1ccc(OCC2=C(c3ccccc3Cl)CCC2)cc1Cl [Compound 295, 3-[2-chloro-4-[[2-(2-chlorophenyl)cyclopenten-1-yl]methoxy]phenyl]Propanoic Acid]",5.78,6.63
"Cc1cccc(C2=C(COc3ccc(CCC(=O)O)c(Cl)c3)CCC2)c1 [Compound 298, 3-[2-chloro-4-[[2-(m-tolyl)cyclopenten-1-yl]methoxy]phenyl]Propanoic Acid]",5.79,5.80
"O=C(O)CCc1ccc(OCC2=C(c3ccc(C(F)(F)F)cc3)CCC2)cc1C(F)(F)F [Compound 300, 3-[2-(trifluoromethyl)-4-[[2-[4-(trifluoromethyl)phenyl]cyclopenten-1-yl]methoxy]phenyl]Propanoic Acid]",5.81,6.71
"COc1ccc(C2=C(COc3ccc(CCC(=O)O)c(C(F)(F)F)c3)CCC2)cc1 [Compound 301, 3-[4-[[2-(4-methoxyphenyl)cyclopenten-1-yl]methoxy]-2-(trifluoromethyl)phenyl]Propanoic Acid]",5.82,6.35

# The next compounds have a higher pEC50 [1] than those just listed; values first:
pEC50 [1],pEC50 [2],SMILES
6.72,5.83,"Cc1ccc(C2=C(COc3cc(C)c(CCC(=O)O)cc3F)CCC2)c(F)c1 [Compound 270, 3-[5-fluoro-4-[[2-(2-fluoro-4-methyl-phenyl)cyclopenten-1-yl]methoxy]-2-methyl-phenyl]Propanoic Acid]"
6.67,5.98,"Cc1ccc(C2=C(COc3ccc(CCC(=O)O)c(Cl)c3)CCC2)c(F)c1 [Compound 273, 3-[2-chloro-4-[[2-(2-fluoro-4-methyl-phenyl)cyclopenten-1-yl]methoxy]phenyl]Propanoic Acid]"
6.51,6.54,O=C(O)CCc1ccc(OCC2=C(c3ccc(Cl)cc3F)CCC2)cc1Cl [Compound 275]
6.37,6.71,"O=C(O)CCc1ccc(OCC2=C(c3ccc(Br)cc3)CCC2)cc1Cl [Compound 276, 3-[4-[[2-(4-bromophenyl)cyclopenten-1-yl]methoxy]-2-chloro-phenyl]Propanoic Acid]"
6.46,6.33,"Cc1cc(OCC2=C(c3ccc(Cl)c(F)c3)CCC2)c(F)cc1CCC(=O)O [Compound 280, 3-[4-[[2-(4-chloro-3-fluoro-phenyl)cyclopenten-1-yl]methoxy]-5-fluoro-2-methyl-phenyl]Propanoic Acid]"
6.50,6.32,"Cc1cc(OCC2=C(c3ccc(Cl)cc3F)CCC2)c(F)cc1CCC(=O)O [Compound 281, 3-[4-[[2-(4-chloro-2-fluoro-phenyl)cyclopenten-1-yl]methoxy]-5-fluoro-2-methyl-phenyl]Propanoic Acid]"
6.72,6.61,"Cc1ccc(C2=C(COc3ccc(CCC(=O)O)c(C(F)(F)F)c3)CCC2)cc1F [Compound 282, 3-[4-[[2-(3-fluoro-4-methyl-phenyl)cyclopenten-1-yl]methoxy]-2-(trifluoromethyl)phenyl]Propanoic Acid]"
6.63,6.45,"Cc1ccc(C2=C(COc3ccc(CCC(=O)O)c(C(F)(F)F)c3)CCC2)c(F)c1 [Compound 283, 3-[4-[[2-(2-fluoro-4-methyl-phenyl)cyclopenten-1-yl]methoxy]-2-(trifluoromethyl)phenyl]Propanoic Acid]"
6.35,7.00,"O=C(O)CCc1ccc(OCC2=C(c3ccc(Cl)c(F)c3)CCC2)cc1C(F)(F)F [Compound 284, 3-[4-[[2-(4-chloro-3-fluoro-phenyl)cyclopenten-1-yl]methoxy]-2-(trifluoromethyl)phenyl]Propanoic Acid]"
6.48,6.97,"O=C(O)CCc1ccc(OCC2=C(c3ccc(Cl)cc3F)CCC2)cc1C(F)(F)F [Compound 285, 3-[4-[[2-(4-chloro-2-fluoro-phenyl)cyclopenten-1-yl]methoxy]-2-(trifluoromethyl)phenyl]Propanoic Acid]"
6.66,6.00,"Cc1cc(OCC2=C(c3ccc(Cl)cc3)CCC2)c(F)cc1CCC(=O)O [Compound 289, 3-[4-[[2-(4-chlorophenyl)cyclopenten-1-yl]methoxy]-5-fluoro-2-methyl-phenyl]Propanoic Acid]"
6.38,< 5.30,"CCc1ccc(C2=C(COc3cc(C)c(CCC(=O)O)cc3F)CCC2)cc1 [Compound 290, 3-[4-[[2-(4-ethylphenyl)cyclopenten-1-yl]methoxy]-5-fluoro-2-methyl-phenyl]Propanoic Acid]"
6.80,5.97,"Cc1ccc(C2=C(COc3ccc(CCC(=O)O)c(Cl)c3)CCC2)cc1F [Compound 296, 3-[2-chloro-4-[[2-(3-fluoro-4-methyl-phenyl)cyclopenten-1-yl]methoxy]phenyl]Propanoic Acid]"
6.37,6.23,"O=C(O)CCc1ccc(OCC2=C(c3cccc(F)c3)CCC2)cc1Cl [Compound 297, 3-[2-chloro-4-[[2-(3-fluorophenyl)cyclopenten-1-yl]methoxy]phenyl]Propanoic Acid]"
6.60,6.18,"Cc1cc(OCC2=C(c3ccc(Br)cc3)CCC2)c(F)cc1CCC(=O)O [Compound 299, 3-[4-[[2-(4-bromophenyl)cyclopenten-1-yl]methoxy]-5-fluoro-2-methyl-phenyl]Propanoic Acid]"
6.80,6.02,"[2H]C([2H])([2H])c1ccc(C2=C(COc3ccc(CCC(=O)O)c(Cl)c3)CCC2)cc1 [Compound 302-D, 3-[2-chloro-4-[[2-[4-(trideuteriomethyl)phenyl]cyclopenten-1-yl]methoxy]phenyl]Propanoic Acid]"

# Source: patent US11230526B1, “Cylcoalkenyl derivatives useful as agonists of the GPR120 and/or GPR40 receptors” (Janssen Pharmaceutica NV, priority 2018, dated 2022)
